Laboratory results taken from ChEMBL document CHEMBL1201862, “PubChem BioAssay data set” (2004).
Each block holds one molecule with its values, some of them ahead of it. Activity calls are given as the source filed them. Rule as the data show it, for most assays here: actives have a measured IC50 and inactives only a lower limit.

What was measured:
Assay type in all cases: functional
Caspase-3 [1] = target: T1, Caspase-3 (Homo sapiens, UniProt P42574); experiment: SAR Analysis of small molecule inhibitors of Sentrin-specific proteases (SENPs) using a Caspase-3 Selectivity assay. [Related pubchem assays (depositor defined):AID2540, AID2599, AID434973, AID489001]
T1 sequence (P42574 whole entry): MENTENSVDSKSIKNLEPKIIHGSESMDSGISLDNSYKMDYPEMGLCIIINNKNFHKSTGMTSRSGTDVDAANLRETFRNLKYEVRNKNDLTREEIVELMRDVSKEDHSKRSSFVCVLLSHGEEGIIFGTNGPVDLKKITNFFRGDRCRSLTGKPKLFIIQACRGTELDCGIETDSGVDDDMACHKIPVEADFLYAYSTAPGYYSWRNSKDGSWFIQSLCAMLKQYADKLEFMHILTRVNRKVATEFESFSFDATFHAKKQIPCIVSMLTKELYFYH

[2] = target: T2, Sentrin-specific protease 6 (Homo sapiens, UniProt Q9GZR1); experiment: inhibition of human SENP6 catalytic domain – biochemical, luminescence, set 2, SAR follow-up (AID 588598)
T2 sequence (Q9GZR1 whole entry): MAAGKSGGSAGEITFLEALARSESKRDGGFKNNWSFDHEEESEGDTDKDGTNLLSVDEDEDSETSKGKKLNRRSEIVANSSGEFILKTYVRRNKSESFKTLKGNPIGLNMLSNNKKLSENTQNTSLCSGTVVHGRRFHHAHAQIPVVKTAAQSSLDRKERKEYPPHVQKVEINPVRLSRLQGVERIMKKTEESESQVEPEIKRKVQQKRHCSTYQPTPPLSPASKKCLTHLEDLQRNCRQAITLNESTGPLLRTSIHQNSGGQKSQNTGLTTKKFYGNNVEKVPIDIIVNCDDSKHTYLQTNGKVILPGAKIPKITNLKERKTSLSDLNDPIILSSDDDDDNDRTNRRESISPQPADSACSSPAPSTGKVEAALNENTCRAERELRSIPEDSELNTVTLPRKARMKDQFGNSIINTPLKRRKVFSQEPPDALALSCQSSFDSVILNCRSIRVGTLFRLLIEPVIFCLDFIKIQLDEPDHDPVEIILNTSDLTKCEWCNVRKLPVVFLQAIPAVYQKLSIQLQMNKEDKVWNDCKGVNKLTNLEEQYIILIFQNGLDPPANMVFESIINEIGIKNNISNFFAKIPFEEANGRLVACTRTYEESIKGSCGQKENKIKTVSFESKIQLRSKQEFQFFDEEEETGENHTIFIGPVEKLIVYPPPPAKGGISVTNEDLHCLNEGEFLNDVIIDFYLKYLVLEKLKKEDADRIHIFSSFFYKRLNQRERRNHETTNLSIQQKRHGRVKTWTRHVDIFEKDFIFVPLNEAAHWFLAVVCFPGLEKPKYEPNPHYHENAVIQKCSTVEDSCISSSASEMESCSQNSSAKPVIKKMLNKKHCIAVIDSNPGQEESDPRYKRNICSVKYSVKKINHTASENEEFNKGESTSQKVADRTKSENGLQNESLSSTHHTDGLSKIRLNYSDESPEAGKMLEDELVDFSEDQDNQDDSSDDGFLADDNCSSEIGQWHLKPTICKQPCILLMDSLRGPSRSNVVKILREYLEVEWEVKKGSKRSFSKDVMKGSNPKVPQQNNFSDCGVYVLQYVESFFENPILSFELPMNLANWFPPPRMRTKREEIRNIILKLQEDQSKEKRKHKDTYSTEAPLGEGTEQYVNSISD

[3] = target: T3, Sentrin-specific protease 8 (Homo sapiens, UniProt Q96LD8); experiment: inhibition of human SENP8 cleavage activity – biochemical, luminescence, SAR follow-up (AID 504501)
T3 sequence (Q96LD8 whole entry): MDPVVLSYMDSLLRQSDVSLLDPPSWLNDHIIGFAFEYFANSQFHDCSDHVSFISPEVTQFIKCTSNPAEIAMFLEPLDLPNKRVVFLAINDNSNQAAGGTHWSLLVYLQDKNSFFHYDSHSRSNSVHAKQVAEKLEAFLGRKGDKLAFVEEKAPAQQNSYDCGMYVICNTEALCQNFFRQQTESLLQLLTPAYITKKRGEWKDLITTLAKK

Caspase-3 [4] = target: T1, Caspase-3; experiment: inhibition of recombinant caspase-3 activity – biochemical, luminescence, set 2, selectivity assay for SENP protease inhibitor project, SAR follow-up (AID 588599)
[5] = target: T3, Sentrin-specific protease 8; experiment: inhibition of sentrin protease 8 – biochemical, luminescence, set 2, SAR follow-up (AID 588601)
[6] = target: T4, Sentrin-specific protease 7 (Homo sapiens, UniProt Q9BQF6); experiment: inhibition of human SENP7 cleavage activity – biochemical, luminescence, SAR follow-up (AID 504497)
T4 sequence (Q9BQF6 whole entry): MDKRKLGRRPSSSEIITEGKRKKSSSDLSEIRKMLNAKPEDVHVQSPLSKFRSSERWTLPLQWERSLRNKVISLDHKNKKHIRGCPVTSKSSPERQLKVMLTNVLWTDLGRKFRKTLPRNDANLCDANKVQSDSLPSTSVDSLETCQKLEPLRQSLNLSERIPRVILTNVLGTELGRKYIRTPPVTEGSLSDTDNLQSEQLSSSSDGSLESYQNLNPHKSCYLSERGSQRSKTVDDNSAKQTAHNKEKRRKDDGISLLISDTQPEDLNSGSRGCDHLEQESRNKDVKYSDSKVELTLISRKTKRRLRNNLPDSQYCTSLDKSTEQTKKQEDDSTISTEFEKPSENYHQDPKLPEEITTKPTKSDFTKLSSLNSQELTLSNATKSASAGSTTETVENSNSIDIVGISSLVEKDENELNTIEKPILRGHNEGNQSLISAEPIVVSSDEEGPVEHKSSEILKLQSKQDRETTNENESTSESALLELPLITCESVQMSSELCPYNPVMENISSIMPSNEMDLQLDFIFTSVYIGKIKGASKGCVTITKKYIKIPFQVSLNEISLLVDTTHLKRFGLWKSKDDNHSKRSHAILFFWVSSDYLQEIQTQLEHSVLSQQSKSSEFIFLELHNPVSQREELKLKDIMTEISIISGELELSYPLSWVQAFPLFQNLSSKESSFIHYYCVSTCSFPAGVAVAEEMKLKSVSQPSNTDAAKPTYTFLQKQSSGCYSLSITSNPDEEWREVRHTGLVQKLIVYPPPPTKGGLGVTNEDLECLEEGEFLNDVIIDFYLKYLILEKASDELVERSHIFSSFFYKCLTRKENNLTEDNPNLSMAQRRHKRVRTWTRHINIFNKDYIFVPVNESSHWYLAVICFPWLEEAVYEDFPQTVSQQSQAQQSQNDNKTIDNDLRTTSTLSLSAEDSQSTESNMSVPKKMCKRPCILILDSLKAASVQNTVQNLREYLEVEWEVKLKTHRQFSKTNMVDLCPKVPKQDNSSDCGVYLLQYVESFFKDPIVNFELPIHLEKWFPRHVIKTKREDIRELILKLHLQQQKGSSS

[7] = target: T4, Sentrin-specific protease 7; experiment: inhibition of human SENP7 cleavage activity – biochemical, luminescence, set 2, SAR follow-up (AID 588600)
[8] = target: T2, Sentrin-specific protease 6; experiment: SAR Analysis of small molecule inhibitors of Sentrin-specific protease 6 (SENP6) using a Luminescent assay. [Related pubchem assays (depositor defined):AID2582, AID2599]
[9] = target: Protein disulfide-isomerase (Homo sapiens, UniProt P07237); experiment: inhibition of PDI-driven insulin aggregation – biochemical, turbidity, absorbance, cherry-picked samples, dose response (AID 602350)
[10] = target: T5, Orexin/Hypocretin receptor type 1 (Homo sapiens, UniProt O43613); experiment: (§1) Fluorescence-based cell-based high throughput dose response assay for antagonists of the orexin 1 receptor (OX1R; HCRTR1). [Related pubchem assays (depositor defined):AID434989, AID435008, AID463079, AID485270, AID492963, AID492964, AID492965, AID493232, AID504717, AID504718]
T5 sequence (O43613 whole entry): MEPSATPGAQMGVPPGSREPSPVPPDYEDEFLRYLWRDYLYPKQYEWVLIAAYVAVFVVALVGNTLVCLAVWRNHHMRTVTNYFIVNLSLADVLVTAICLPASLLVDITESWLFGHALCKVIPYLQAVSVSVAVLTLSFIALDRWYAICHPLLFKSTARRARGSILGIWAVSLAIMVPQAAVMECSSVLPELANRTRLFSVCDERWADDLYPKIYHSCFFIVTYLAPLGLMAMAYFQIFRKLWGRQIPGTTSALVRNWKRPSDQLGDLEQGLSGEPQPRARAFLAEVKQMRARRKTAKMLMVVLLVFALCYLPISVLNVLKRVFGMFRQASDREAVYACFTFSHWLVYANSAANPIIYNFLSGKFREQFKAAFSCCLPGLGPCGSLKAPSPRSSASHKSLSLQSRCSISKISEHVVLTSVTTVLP

CHO-K1 = experiment: (§2) Counterscreen for antagonists of the orexin 1 receptor (OX1R; HCRTR1): Homogeneous time resolved fluorescence (HTRF)-based cell-based dose response assay to identify antagonists of the parental CHO-K1 cell line. [Related pubchem assays (depositor defined):AID434989, AID435008, AID463079, AID485270, AID492963, AID492964, AID492965, AID493232, AID504699, AID504701]; details: Cricetulus griseus
[11] = as §2, with “Fluorescence-based” for “Homogeneous time resolved fluorescence (HTRF)-based”, “cell-based high throughput” for “cell-based”, “CHO” for “CHO-K1”
Orexin receptor type 2 [12] = target: T6, Orexin receptor type 2 (Homo sapiens, UniProt O43614); experiment: Counterscreen assay for antagonists of the orexin 1 receptor (OX1R; HCRTR1): Homogeneous Time Resolved Fluorescence (HTRF)-based cell-based dose response assay for antagonists of the orexin 2 receptor (OX2R; HCRTR2), run by assay provider.
Orexin receptor type 2 [13] = target: T6, Orexin receptor type 2; experiment: Counterscreen assay for antagonists of the orexin 1 receptor (OX1R; HCRTR1): Fluorescence-based cell-based dose response assay for antagonists of the orexin 2 receptor (OX2R; HCRTR2), run by assay provider.
[14] = target: T5, Orexin/Hypocretin receptor type 1; experiment: as §1, with “Homogeneous Time Resolved Fluorescence (HTRF)-based” for “Fluorescence-based”

T6 sequence (O43614 whole entry): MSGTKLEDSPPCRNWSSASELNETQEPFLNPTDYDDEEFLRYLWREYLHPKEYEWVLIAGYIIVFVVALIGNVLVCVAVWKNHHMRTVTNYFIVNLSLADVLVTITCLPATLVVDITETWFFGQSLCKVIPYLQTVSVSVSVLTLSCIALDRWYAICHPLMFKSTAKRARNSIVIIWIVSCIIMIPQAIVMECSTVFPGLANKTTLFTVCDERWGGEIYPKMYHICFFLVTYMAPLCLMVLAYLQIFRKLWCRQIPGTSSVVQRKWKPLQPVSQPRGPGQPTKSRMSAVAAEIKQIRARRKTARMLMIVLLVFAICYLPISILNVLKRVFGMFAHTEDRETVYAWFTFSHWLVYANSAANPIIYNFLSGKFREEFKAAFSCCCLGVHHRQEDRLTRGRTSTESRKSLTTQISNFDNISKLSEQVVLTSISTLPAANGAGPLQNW
Sequence of Protein disulfide-isomerase (P07237 whole entry): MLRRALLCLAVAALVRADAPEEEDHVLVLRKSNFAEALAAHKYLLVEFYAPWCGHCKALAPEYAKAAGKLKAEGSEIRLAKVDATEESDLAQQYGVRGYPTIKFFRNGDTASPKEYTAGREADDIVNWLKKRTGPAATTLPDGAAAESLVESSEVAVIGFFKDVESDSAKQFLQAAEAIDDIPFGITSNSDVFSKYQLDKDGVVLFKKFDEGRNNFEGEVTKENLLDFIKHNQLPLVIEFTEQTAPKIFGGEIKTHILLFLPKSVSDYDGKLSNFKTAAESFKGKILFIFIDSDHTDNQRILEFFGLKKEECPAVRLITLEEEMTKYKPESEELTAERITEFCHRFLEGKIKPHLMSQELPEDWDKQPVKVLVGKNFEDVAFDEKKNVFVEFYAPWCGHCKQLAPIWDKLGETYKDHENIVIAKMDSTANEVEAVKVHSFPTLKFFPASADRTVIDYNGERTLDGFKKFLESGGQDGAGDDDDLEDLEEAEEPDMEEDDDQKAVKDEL

- IC50 (Caspase-3 [1]): 35 µM (active)
- IC50 [2]: > 99 µM (inactive)
- IC50 (Caspase-3 [4]): > 99 µM (inactive)
- IC50 [6]: 7.2 µM (active)
- IC50 [7]: 2.31 µM (active)
- IC50 [8]: > 99 µM (inactive)
SMILES: CC(=O)Nc1ccc(/C=C/c2noc(-c3ccccc3O)n2)cc1
- IC50 [3]: > 99 µM (inactive)
- IC50 [5]: 1.86 µM (active)

- AC50 [9]: 6.5 µM (active)
SMILES: O=C1NC[C@H](Cc2ccccc2)N(C[C@H]2CCCN2C[C@H](Cc2ccccc2)N2C[C@H](Cc3ccc(O)cc3)N(CCc3ccccc3)C(=O)C2=O)C1=O

SMILES: O=C(O)CCn1c(SCCOc2ccccc2)nc2ccccc21
- IC50 [10]: 23 µM (inactive)
- IC50 (CHO-K1): > 66.2 µM (inactive)
- IC50 [11]: > 49.7 µM (inactive)
- IC50 (Orexin receptor type 2 [12]): > 50 µM (inactive)
- IC50 (Orexin receptor type 2 [13]): > 88.8 µM (inactive)
- IC50 [14]: 0.687 µM (active)
